According to publication PMC7932521, “2-aminobenzimidazoles for leishmaniasis: From initial hit discovery to in vivo profiling” (PLoS Neglected Tropical Diseases, 2021):
Read-outs that look alike come from different tables or passages of the source.

Key:
MRC-5 cytotoxicity = type: cell-based; conditions: human, MRC-5 cells; S1 Data
[1] = Mouse liver microsomal stability; type: in vitro ADME; conditions: for microsomal CLint at 0.5 μM: CD1, mouse, liver microsomes
Procedure: The metabolic stability of the compounds was evaluated in human (pool of 200 donors, XenoTech) and mouse liver microsomes (CD1 mouse, GIBCO). Test compounds were prepared at a concentration of 0.5 μM and incubated with 0.25 mg/mL liver microsomes at pH 7.4 and 37°C. The reaction was started by addition of NADPH at […]. Samples were taken at 0, 5, 10, 15, 20 and 30 minutes. The reaction was stopped by the addition of acetonitrile:methanol (1:1) containing an internal standard (tolbutamide at 50 nM). Compounds were quantified by liquid chromatography triple quadrupole mass spectrometry (LC-MS/MS). Peak area ratios (analyte/internal standard) were converted to % remaining using the area ratio at time 0 as 100%. Half-life (t1/2 = ln(2)/k) in minutes and intrinsic clearance (Clint = k x 1000/(0.25)) in μL/min/mg were calculated using a non-linear regression from % remaining versus incubation time. From this plot, the slope (k) was determined. The analysis conditions were: analytical column (Gemini C18, […], Phenomenex), electrospray ionization source (ESI) in positive and negative mode, mobile phase A (water + 0.1% formic acid) and B (acetonitrile + 0.1% formic acid), flow rate of 0.7 mL/min.

[2] = tested on: Leishmania infantum MHOM/MA(BE)/67/ITMAP263 amastigotes; test: L. infantum intracellular amastigote assay in PMM; type: cell-based; conditions: for SI: selectivity index (CC50 / IC50): CC50 / L. infantum IC50; for IC50: Leishmania infantum, read-out: L. infantum IC50
Procedure: (§1) Leishmania infantum MHOM/MA(BE)/67/ITMAP263 amastigotes were collected from the spleen of infected donor Golden hamsters. Primary peritoneal mouse macrophages (PMM) were used as host cells for in vitro assays. PMM were collected from Swiss mice after 2 days of peritoneal stimulation with a 2% suspension of potato starch and maintained in RPMI-1640 medium supplemented with 200 mM L-glutamine, antibiotics and 5% FCS at 37°C and 5% CO2. Promastigotes of L. infantum chagasi (luciferase) (MHOM/BR/2005/NLC) obtained as described in Reimão et al.,[27] were grown in M199 medium supplemented with 10% FCS, 0.25% hemin, 32 μg/ml hygromycin and 2% sterile human urine at 25°C and 5% CO2.
(§2) Stock solutions of the compounds at 20 mM were prepared in 100% DMSO. Next, the compounds were serially pre-diluted in DMSO followed by a further dilution in demineralized water to assure a final in-test DMSO concentration below 1%. The compounds were tested at 4-fold dilutions starting at 64 μM.
For the antileishmania in vitro assays, 3×10^4 PMM/well were seeded in 96-well plates. After 24h, 5×10^5 amastigotes/well were added and incubated for 2h at 37°C. Next, the compounds in 4-fold serial dilutions were added and the plates were further incubated for 5 days (37°C, 5% CO2). Parasite burdens were assessed using an inverted microscope after Giemsa staining. The results were expressed as percent reduction in parasite burdens compared to negative control wells (100% growth) and IC50 values were determined. Values represent the geometric mean of at least two independent experiments. Miltefosine was used as the positive control in all plates.

[3] = Experimental distribution coefficient (eLogD); type: physicochemical; conditions: pH 7.4
Procedure: To determine the lipophilicity of the compounds, a methodology based on the retention time of molecules in reverse stationary phase (Ascentis RP-Amide HPLC column) was used. The chromatogram was obtained using LC-MS/MS. Test compounds were prepared at 1.0 μg/mL by adding the stock solution at (1:1) mobile phases A:B + internal standard at 200nM (A: 5% methanol in 10mM ammonium acetate pH 7.4, B: 100% methanol), DMSO concentration must be lower than 2%. […] The retention time (in minutes) of each of the eight standards was plotted against their LogD values. The resulting equation for the calibration curve (y = mx + b) was used to calculate the LogD values for the test compounds.

[4] = tested on: PMM (Primary Mouse Macrophages); test: Cytotoxicity on primary peritoneal mouse macrophages; type: cell-based; conditions: Mus musculus, Macrophage, read-out: PMM IC50
Procedure: as §1, §2

[5] = Parallel artificial membrane permeability assay (PAMPA); type: in vitro ADME; conditions: PAMPA, S1 Data; read-out: PAMPA Pe
Procedure: To determine the passive permeability of the compounds, a 96-well plate containing membranes pre-coated with lipids (Corning Gentest # 353015) was used. The solutions of the compounds were prepared by diluting the stock solutions (10mM) in phosphate buffered saline (PBS) pH 6.5 at a final concentration of 10μM. The solutions diluted in PBS pH 6.5 were then added to the donor portion of the plate (300 μl/well), while PBS pH 7.4 (200 μl/well) was added to the acceptor portion. The two portions of the plate were then coupled, and the system was incubated for 5 h at 37°C. At the end of the incubation, samples were collected from the donor and acceptor plates, and then added to plates containing quench solution (10% water and 90% methanol: acetonitrile (50:50) + 50 nM tolbutamide). The final concentrations of compounds in the donor, acceptor, and initial solution (T0) wells were analyzed using LC-MS/MS. The results were used to calculate an effective permeability (Pe) value. The PAMPA assay was performed in triplicate (n = 3).

[6] = 120 h, intracellular amastigotes in PMM, 5 days
[7] = reverse stationary phase HPLC column (Ascentis RP-Amide), S1 Data
[8] = pH 7.4, S1 Data, read-out: MLM CLint
[9] = reverse-phase HPLC retention (Ascentis RP-Amide column), experimental
[10] = pH 7.4, mouse liver microsome intrinsic clearance, read-out: MLM Clint

Structure (SMILES) | CC50 (MRC-5 cytotoxicity) [µM] | MLM CLint ([1]; S1 Data) [µL/min/mg] | SI: selectivity index (CC50 / IC50) [2] | IC50 [2, 6] [µM] | IC50 ([2]; S1 Data) [µM] | eLogD ([3]; experimental) | chromatographic logD [3, 7] | IC50 [4] [µM] | Papp at 5 h, 10 μM [5] [×10⁻⁶ cm/s] | microsomal CLint at 0.5 μM [1, 8] [µL/min/mg] | chromatographic logD [3, 9] | microsomal CLint at 0.5 μM [1, 10] [µL/min/mg] | MLM CLint ([1]; mouse liver microsome intrinsic clearance) [µL/min/mg]
Cn1ccc(C(=O)Nc2nc3ccc(C#N)cc3n2CC(F)(F)F)n1 [Compound 35, O=C(c1nn(C)cc1)Nc2nc(ccc(C#N)c3)c3n2CC(F)(F)F] | 58.2 | 73 | 1 | 26 | 25.7 | 4.2 | 4.15 | 32 | 13.9 |  |  |  | 
Cn1nccc1C(=O)Nc1nc2ccc(C#N)cc2n1CC(C)(C)O [Compound 49, O=C(c1ccnn1C)Nc2nc(ccc(C#N)c3)c3n2CC(O)(C)C] | > 64 |  | 2 | 36 | 36 |  |  | > 64 | 9.39 | < 23 |  |  | 
CC(C)(C)Cn1c(NC(=O)c2ccn(CCO)n2)nc2ccc(C#N)cc21 [Compound 38, O=C(c1nn(CCO)cc1)Nc2nc(ccc(C#N)c3)c3n2CC(C)(C)C] | > 64 |  | 1 |  | > 64 |  | 4.03 | > 64 | 7.54 | < 23 | 4 |  | 
Cn1nccc1C(=O)Nc1nc2ccc(C#N)cc2n1CCF [Compound 48, FCCn1c(cc(C#N)cc2)c2nc1NC(c3ccnn3C)=O] | 13.7 | 154 | 1 | 28 | 27.9 |  |  | 32 | 63.7 |  |  |  | 
CCCn1c(NC(=O)Cc2ccc(F)cc2)nc2ccc(C#N)cc21 [Compound 8, n1c(c2n(CCC)c1NC(=O)Cc3ccc(F)cc3)ccc(C#N)c2] | > 64 |  | 1 | 46 | 45.6 | 3.6 | 3.6 | 45.2 | 30.7 | 226 |  | 225 | 
Cn1nccc1C(=O)Nc1nc2ccc(C#N)cc2n1CC(F)F [Compound 47, FC(F)Cn1c(cc(C#N)cc2)c2nc1NC(c3ccnn3C)=O] | 12.3 | 383 | 3 | 8.8 | 8.78 |  |  | 22.6 | 10.6 |  |  |  | 
CC(C)(C)Cn1c(NC(=O)c2cccnc2)nc2ccc(C#N)cc21 [Compound 41, O=C(Nc1n(CC(C)(C)C)c(c2n1)cc(C#N)cc2)c3cccnc3] | > 64 | 87 | 2 | 8.6 | 8.57 |  | 3.9 | 16 | 18 |  |  |  | 
CC(C)(C)Cn1c(NC(=O)c2ccccn2)nc2ccc(C#N)cc21 [Compound 40, CC(Cn1c(NC(=O)c2ccccn2)nc(c13)ccc(C#N)c3)(C)C] | 60.9 |  | 1 | 15 | 14.9 |  | 3.93 | 16 | 3.62 | 1030 | 4 |  | 
Cn1nccc1C(=O)Nc1nc2ccc(C#N)cc2n1C1CCOCC1 [Compound 32, O=C(c1ccnn1C)Nc2nc(ccc(C#N)c3)c3n2C4CCOCC4] | > 64 |  | 1 |  | > 64 |  | 2.32 | > 64 | 11 | < 23 | 2.3 | 23 | 
CCn1c(NC(=O)Cc2ccc(F)cc2)nc2ccc(F)cc21 [Compound 16, Fc1cc2c(nc(NC(=O)Cc3ccc(F)cc3)n2CC)cc1] | > 64 |  |  | 4.4 | 4.35 |  | 3.59 | > 64 | 19.4 | 538 |  |  | 
CCCn1c(NC(=O)Cc2ccc(F)cc2)nc2c(F)cccc21 [Compound 5, Fc1cccc2c1nc(NC(=O)Cc3ccc(F)cc3)n2CCC] | > 64 | 715 | 1 |  | > 64 |  | 3.57 | > 64 | 16.2 |  | 3.6 |  | 
Cn1nccc1C(=O)Nc1nc2cccnc2n1CC(F)(F)F [Compound 53, O=C(c1ccnn1C)Nc2nc(cccn3)c3n2CC(F)(F)F] | 6.83 |  | 4 | 8.2 | 8.18 |  |  | 32 | 24.3 | 118 |  |  | 119
CN1CCC(n2c(NC(=O)c3ccnn3C)nc3ccc(C#N)cc32)CC1 [Compound 51, O=C(c1ccnn1C)Nc2nc(ccc(C#N)c3)c3n2C4CCN(C)CC4] | > 64 | 72 | 3 | 20 | 20.2 |  |  | 50.8 | 2.91 |  |  |  | 
